ChEMBL document CHEMBL3991601, “The target landscape of clinical kinase drugs” (Science, 2017)
The source made the active and inactive calls. Rule as the data show it, for most assays here: actives have a measured Kd and inactives only a lower limit.

How the values were obtained:
[1] = target: T1, Serine/threonine-protein kinase TAO2 (Homo sapiens, UniProt Q9UL54)
T1 sequence (Q9UL54 whole entry): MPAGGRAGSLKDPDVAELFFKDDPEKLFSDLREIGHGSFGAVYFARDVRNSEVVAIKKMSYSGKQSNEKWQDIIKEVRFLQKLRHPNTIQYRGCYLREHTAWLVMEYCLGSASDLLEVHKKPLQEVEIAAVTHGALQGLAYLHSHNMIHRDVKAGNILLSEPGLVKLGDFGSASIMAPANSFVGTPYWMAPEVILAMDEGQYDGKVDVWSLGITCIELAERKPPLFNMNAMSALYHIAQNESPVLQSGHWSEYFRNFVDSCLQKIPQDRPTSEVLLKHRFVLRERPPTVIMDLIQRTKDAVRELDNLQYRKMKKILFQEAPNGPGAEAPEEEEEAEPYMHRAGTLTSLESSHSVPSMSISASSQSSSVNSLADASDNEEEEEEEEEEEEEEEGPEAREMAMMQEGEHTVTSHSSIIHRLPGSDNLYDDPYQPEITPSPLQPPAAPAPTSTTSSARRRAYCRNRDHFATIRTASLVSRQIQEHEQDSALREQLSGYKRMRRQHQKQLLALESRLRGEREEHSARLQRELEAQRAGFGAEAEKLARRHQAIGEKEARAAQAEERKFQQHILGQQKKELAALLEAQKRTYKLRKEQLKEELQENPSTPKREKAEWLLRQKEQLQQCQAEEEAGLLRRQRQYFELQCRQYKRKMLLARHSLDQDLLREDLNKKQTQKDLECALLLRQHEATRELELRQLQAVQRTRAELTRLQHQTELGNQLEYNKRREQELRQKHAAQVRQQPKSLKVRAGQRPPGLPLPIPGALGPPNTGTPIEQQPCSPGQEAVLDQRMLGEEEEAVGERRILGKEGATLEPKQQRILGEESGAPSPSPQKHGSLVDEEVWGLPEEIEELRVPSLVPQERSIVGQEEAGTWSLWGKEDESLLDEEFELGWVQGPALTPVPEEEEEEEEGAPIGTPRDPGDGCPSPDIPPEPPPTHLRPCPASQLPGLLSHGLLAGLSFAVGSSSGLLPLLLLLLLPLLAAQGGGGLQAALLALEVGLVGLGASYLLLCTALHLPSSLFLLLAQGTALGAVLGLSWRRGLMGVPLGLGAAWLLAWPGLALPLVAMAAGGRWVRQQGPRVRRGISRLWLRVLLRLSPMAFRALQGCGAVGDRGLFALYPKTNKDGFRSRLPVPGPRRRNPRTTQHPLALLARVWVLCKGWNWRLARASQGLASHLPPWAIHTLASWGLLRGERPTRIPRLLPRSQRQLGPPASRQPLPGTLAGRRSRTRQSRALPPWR

[2] = target: Receptor-interacting serine/threonine-protein kinase 3 (Homo sapiens, UniProt Q9Y572)
[3] = target: Bone morphogenetic protein receptor type-1B (Homo sapiens, UniProt O00238)
[4] = target: Tyrosine-protein kinase SYK (Homo sapiens, UniProt P43405)
[5] = target: T2, Peroxisomal acyl-coenzyme A oxidase 3 (Homo sapiens, UniProt O15254)
T2 sequence (O15254 whole entry): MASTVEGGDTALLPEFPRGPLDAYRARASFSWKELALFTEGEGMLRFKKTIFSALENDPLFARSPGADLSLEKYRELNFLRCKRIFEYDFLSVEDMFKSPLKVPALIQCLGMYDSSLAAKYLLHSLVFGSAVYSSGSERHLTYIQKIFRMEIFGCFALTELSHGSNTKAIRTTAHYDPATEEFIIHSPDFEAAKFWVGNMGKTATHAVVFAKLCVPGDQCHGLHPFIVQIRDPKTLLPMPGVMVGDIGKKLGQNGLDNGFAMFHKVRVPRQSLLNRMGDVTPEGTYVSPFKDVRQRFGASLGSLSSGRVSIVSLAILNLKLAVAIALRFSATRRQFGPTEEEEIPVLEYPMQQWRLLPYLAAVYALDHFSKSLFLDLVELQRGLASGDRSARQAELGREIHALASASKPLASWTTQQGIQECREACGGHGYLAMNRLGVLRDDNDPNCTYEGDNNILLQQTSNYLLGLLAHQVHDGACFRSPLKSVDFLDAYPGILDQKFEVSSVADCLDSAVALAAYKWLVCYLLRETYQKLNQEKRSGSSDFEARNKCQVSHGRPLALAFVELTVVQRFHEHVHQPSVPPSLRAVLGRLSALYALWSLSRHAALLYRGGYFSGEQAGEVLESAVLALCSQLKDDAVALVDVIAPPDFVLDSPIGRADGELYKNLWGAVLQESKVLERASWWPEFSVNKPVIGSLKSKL

[6] = target: Mitogen-activated protein kinase kinase kinase 20 (Homo sapiens, UniProt Q9NYL2)
[7] = target: T3, Uncharacterized protein FLJ45252 (Homo sapiens, UniProt Q6ZSR9); details: read-out: Kd apparent; k-562, colo 205, sk-n-be(2) and mv-4-11
T3 sequence (Q6ZSR9 whole entry): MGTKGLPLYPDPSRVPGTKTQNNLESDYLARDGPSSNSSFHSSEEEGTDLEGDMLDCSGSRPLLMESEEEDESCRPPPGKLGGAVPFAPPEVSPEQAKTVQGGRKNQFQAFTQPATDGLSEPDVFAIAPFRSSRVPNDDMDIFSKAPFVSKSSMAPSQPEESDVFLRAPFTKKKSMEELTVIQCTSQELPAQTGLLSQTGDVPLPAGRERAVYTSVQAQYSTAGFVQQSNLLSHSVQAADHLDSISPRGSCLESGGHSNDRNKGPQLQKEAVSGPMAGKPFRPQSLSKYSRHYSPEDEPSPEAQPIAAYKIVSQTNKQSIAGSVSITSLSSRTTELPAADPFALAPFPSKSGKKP

[8] = target: Mitogen-activated protein kinase 10 (Homo sapiens, UniProt P53779)
[9] = target: Serine/threonine-protein kinase MRCK gamma (Homo sapiens, UniProt Q6DT37)
[10] = target: Cyclin-dependent kinase 3 (Homo sapiens, UniProt Q00526)
Also: in the data inactive means no Kd found up to 30 µM.

Chain of Mitogen-activated protein kinase 10 (P53779 whole entry): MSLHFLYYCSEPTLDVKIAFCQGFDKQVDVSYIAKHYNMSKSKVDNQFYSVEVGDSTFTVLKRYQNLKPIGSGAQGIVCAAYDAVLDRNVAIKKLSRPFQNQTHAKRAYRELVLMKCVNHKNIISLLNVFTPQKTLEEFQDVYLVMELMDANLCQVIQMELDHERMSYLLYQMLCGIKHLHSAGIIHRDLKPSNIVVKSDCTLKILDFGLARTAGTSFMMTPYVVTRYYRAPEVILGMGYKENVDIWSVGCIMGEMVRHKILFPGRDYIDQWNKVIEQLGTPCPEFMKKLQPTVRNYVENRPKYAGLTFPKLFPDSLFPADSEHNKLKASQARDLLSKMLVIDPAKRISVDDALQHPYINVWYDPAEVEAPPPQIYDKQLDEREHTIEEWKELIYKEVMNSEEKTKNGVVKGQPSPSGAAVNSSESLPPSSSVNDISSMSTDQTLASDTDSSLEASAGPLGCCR
Chain of Cyclin-dependent kinase 3 (Q00526 whole entry): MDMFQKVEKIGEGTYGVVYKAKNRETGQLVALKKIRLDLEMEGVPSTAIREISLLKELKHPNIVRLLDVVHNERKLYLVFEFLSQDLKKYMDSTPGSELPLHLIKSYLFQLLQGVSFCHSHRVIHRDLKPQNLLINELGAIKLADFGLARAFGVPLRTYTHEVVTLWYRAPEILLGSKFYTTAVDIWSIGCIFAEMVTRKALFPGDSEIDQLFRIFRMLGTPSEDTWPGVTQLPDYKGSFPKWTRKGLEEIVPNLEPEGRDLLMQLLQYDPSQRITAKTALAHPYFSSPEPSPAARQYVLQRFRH
Chain of Mitogen-activated protein kinase kinase kinase 20 (Q9NYL2 whole entry): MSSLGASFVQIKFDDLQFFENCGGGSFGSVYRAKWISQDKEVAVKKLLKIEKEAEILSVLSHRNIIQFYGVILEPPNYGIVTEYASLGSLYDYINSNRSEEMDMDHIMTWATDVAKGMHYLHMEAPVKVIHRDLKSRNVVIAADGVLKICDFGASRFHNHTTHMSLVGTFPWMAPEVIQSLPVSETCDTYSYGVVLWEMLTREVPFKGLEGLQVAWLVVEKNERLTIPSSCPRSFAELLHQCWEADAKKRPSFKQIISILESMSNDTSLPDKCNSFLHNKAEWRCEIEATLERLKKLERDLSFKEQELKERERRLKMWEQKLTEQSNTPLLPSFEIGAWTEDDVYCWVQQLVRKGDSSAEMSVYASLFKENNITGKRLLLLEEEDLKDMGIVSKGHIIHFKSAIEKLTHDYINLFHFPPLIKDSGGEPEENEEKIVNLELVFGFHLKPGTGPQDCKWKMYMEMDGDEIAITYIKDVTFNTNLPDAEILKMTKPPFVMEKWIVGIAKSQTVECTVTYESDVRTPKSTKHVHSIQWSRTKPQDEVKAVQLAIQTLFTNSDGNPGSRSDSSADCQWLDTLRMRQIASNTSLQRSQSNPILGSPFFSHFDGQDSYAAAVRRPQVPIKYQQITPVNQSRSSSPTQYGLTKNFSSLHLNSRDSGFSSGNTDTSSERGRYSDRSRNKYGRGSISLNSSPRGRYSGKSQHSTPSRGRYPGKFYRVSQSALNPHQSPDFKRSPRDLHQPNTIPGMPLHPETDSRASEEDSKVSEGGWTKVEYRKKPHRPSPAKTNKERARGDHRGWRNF
Chain of Serine/threonine-protein kinase MRCK gamma (Q6DT37 whole entry): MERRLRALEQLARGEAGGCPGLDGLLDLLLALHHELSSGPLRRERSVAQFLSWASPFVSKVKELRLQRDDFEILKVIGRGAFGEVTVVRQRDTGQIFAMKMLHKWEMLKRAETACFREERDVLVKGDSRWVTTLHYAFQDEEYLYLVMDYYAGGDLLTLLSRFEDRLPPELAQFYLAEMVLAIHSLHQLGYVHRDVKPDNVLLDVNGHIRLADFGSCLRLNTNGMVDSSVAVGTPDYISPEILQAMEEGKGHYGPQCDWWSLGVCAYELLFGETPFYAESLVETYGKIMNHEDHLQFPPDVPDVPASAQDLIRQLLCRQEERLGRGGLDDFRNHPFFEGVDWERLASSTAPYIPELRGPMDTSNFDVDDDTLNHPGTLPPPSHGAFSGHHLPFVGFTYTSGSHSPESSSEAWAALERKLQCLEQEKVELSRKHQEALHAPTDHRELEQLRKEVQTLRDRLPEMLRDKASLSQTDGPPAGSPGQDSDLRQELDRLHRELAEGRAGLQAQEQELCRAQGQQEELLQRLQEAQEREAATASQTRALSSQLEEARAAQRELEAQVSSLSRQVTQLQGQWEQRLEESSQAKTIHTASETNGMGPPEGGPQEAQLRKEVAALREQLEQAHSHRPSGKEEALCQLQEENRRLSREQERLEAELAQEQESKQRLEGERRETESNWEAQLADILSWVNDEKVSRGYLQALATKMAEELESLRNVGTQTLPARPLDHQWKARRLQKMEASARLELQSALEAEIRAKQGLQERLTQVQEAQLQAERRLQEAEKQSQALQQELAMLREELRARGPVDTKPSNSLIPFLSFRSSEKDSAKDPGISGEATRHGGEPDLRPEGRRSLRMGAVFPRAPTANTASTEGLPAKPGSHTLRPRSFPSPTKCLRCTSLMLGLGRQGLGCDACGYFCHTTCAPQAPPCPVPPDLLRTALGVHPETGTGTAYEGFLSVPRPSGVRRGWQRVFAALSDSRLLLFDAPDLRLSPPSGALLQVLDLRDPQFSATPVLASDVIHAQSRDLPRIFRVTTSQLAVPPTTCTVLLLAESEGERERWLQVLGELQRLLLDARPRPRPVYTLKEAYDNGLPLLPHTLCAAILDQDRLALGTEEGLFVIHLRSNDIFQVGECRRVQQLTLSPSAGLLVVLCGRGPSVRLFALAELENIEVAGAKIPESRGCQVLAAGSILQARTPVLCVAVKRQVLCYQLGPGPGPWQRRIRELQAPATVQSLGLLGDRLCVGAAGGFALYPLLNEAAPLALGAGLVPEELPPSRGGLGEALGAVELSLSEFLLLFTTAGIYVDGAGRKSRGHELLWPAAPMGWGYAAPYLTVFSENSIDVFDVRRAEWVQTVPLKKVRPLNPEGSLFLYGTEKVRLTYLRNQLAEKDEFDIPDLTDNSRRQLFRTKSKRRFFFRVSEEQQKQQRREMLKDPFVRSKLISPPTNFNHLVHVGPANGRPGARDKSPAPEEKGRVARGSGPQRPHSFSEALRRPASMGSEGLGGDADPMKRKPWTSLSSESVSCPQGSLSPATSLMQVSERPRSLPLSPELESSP
Chain of Receptor-interacting serine/threonine-protein kinase 3 (Q9Y572 whole entry): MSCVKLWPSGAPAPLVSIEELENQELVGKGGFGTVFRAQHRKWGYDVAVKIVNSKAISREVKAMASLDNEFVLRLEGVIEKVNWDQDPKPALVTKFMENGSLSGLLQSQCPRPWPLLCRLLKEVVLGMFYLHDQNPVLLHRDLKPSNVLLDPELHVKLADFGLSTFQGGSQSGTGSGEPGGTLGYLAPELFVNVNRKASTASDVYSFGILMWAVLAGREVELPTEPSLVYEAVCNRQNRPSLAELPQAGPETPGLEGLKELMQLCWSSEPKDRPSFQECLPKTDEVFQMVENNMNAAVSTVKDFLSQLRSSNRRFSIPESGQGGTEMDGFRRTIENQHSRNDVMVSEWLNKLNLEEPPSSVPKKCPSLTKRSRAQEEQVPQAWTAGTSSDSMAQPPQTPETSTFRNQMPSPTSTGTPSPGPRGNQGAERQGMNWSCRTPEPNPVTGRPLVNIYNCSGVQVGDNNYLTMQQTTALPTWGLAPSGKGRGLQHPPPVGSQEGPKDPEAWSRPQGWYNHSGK
Chain of Bone morphogenetic protein receptor type-1B (O00238 whole entry): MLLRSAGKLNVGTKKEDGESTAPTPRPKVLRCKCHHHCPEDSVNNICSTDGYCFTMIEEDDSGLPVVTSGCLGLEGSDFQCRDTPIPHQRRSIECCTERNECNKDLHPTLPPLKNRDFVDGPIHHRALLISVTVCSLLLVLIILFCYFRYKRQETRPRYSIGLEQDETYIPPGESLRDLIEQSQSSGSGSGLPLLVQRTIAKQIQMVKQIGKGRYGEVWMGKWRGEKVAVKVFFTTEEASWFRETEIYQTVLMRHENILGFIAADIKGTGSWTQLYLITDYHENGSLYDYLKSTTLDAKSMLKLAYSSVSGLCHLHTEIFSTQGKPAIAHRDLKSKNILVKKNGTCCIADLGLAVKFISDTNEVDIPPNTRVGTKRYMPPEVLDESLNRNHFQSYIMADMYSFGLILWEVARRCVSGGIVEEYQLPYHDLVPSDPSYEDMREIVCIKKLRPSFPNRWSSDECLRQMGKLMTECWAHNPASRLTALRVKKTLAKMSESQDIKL

Row | Compound | Kd [1] | Kd [2] | Kd [3] | Kd [4] | Kd [5] | Kd [6] | Kd [7] | Kd [8] | Kd [9] | Kd [10]
1 | C#Cc1cccc(Nc2ncnc3cc(OC)c(OCCCCCCC(=O)NO)cc23)c1 [CUDC-101] | > 30 µM (inactive) | > 30 µM (inactive) | > 30 µM (inactive) | > 30 µM (inactive) | > 30 µM (inactive) | > 30 µM (inactive) | > 30 µM (inactive) | > 30 µM (inactive) | > 30 µM (inactive) | > 30 µM (inactive)
2 | NC1(c2ccc(-c3nc4ccn5c(=O)[nH]nc5c4cc3-c3ccccc3)cc2)CCC1 [MK-2206] | > 30 µM (inactive) | > 30 µM (inactive) | > 30 µM (inactive) | > 30 µM (inactive) | > 30 µM (inactive) | > 30 µM (inactive) | > 30 µM (inactive) | > 30 µM (inactive) | > 30 µM (inactive) | > 30 µM (inactive)
3 | Cc1nc2cc(-c3nn(C(C)C)c4ncnc(N)c34)ccc2o1 | 1.73 µM (active) | 2.38 µM (active) | 0.123 µM (active) | > 30 µM (inactive) | > 30 µM (inactive) | > 30 µM (inactive) | > 30 µM (inactive) | > 30 µM (inactive) | > 30 µM (inactive) | > 30 µM (inactive)
4 | O=C1NC(=O)[C@@H](c2cn3c4c(cccc24)CCC3)[C@@H]1c1c[nH]c2ccccc12 [TIVANTINIB] | > 30 µM (inactive) | > 30 µM (inactive) | > 30 µM (inactive) | > 30 µM (inactive) | > 30 µM (inactive) | > 30 µM (inactive) | > 30 µM (inactive) | > 30 µM (inactive) | > 30 µM (inactive) | > 30 µM (inactive)
5 | CO[C@H]1C[C@@H]2CC[C@@H](C)[C@@](O)(O2)C(=O)C(=O)N2CCCC[C@H]2C(=O)O[C@H]([C@H](C)C[C@@H]2CC[C@@H](OP(C)(C)=O)[C@H](OC)C2)CC(=O)[C@H](C)/C=C(\C)[C@@H](O)[C@@H](OC)C(=O)[C@H](C)C[C@H](C)/C=C/C=C/C=C/1C [RIDAFOROLIMUS] | > 30 µM (inactive) | > 30 µM (inactive) | > 30 µM (inactive) | > 30 µM (inactive) | > 30 µM (inactive) | > 30 µM (inactive) | > 30 µM (inactive) | > 30 µM (inactive) | > 30 µM (inactive) | > 30 µM (inactive)
6 | COCC(=O)NC/C=C/c1ccc2ncnc(Nc3ccc(Oc4ccc(C)nc4)c(C)c3)c2c1 [CP-724714] | > 30 µM (inactive) | > 30 µM (inactive) | > 30 µM (inactive) | > 30 µM (inactive) | > 30 µM (inactive) | > 30 µM (inactive) | > 30 µM (inactive) | > 30 µM (inactive) | > 30 µM (inactive) | > 30 µM (inactive)
7 | Cc1nc(NC(=O)N2CCC[C@H]2C(N)=O)sc1-c1ccnc(C(C)(C)C(F)(F)F)c1 [ALPELISIB] | > 30 µM (inactive) | > 30 µM (inactive) | > 30 µM (inactive) | > 30 µM (inactive) | > 30 µM (inactive) | > 30 µM (inactive) | > 30 µM (inactive) | > 30 µM (inactive) | > 30 µM (inactive) | > 30 µM (inactive)
8 | Cn1ncc(Cl)c1-c1cc(C(=O)N[C@H](CN)Cc2ccc(F)c(F)c2)oc1Cl [UPROSERTIB] | > 30 µM (inactive) | > 30 µM (inactive) | > 30 µM (inactive) | > 30 µM (inactive) | > 30 µM (inactive) | > 30 µM (inactive) | > 30 µM (inactive) | > 30 µM (inactive) | > 30 µM (inactive) | > 30 µM (inactive)
9 | COc1ncc(-c2ccc3nccc(-c4ccnnc4)c3c2)cc1NS(=O)(=O)c1ccc(F)cc1F [OMIPALISIB] | > 30 µM (inactive) | > 30 µM (inactive) | > 30 µM (inactive) | > 30 µM (inactive) | > 30 µM (inactive) | > 30 µM (inactive) | > 30 µM (inactive) | > 30 µM (inactive) | > 30 µM (inactive) | > 30 µM (inactive)
10 | C[C@H]1CNCCCN1S(=O)(=O)c1cccc2cncc(F)c12 | > 30 µM (inactive) | > 30 µM (inactive) | > 30 µM (inactive) | > 30 µM (inactive) | > 30 µM (inactive) | > 30 µM (inactive) | > 30 µM (inactive) | > 30 µM (inactive) | > 30 µM (inactive) | > 30 µM (inactive)
11 | Cc1cnc(NC(=O)Nc2cc(Br)c(C)cc2OC[C@@H]2CNCCO2)cn1 [RABUSERTIB] | > 30 µM (inactive) | > 30 µM (inactive) | > 30 µM (inactive) | > 30 µM (inactive) | > 30 µM (inactive) | > 30 µM (inactive) | > 30 µM (inactive) | > 30 µM (inactive) | > 30 µM (inactive) | > 30 µM (inactive)
12 | C[C@@H](Oc1cc(C(=O)Nc2ccc(C(=O)N3CCN(C)CC3)cc2)nnc1N)c1c(Cl)ccc(F)c1Cl | > 30 µM (inactive) | > 30 µM (inactive) | > 30 µM (inactive) | > 30 µM (inactive) | > 30 µM (inactive) | > 30 µM (inactive) | 3.36 µM (active) | > 30 µM (inactive) | > 30 µM (inactive) | > 30 µM (inactive)
13 | Cc1cccc(-c2nn3c(c2-c2ccnc4ccc(C(N)=O)cc24)CCC3)n1 [GALUNISERTIB] | > 30 µM (inactive) | 0.011 µM (active) | > 30 µM (inactive) | > 30 µM (inactive) | > 30 µM (inactive) | > 30 µM (inactive) | > 30 µM (inactive) | > 30 µM (inactive) | > 30 µM (inactive) | > 30 µM (inactive)
14 | Cc1nc(Nc2n[nH]c3c2CN(C(=O)N[C@H](CN(C)C)c2ccccc2)C3(C)C)c2sccc2n1 [PF-03758309] | > 30 µM (inactive) | > 30 µM (inactive) | > 30 µM (inactive) | > 30 µM (inactive) | > 30 µM (inactive) | > 30 µM (inactive) | 2.72 µM (active) | > 30 µM (inactive) | > 30 µM (inactive) | 63.6 µM (active)
